32 compounds from US9073940B2, “Tricyclic pyrazol amine derivatives” (MERCK SERONO SA, priority 2009, dated 2015) can be followed below.

pIC50: −log10 of the molar value.

The test system of one assay is 4 PI3K isoforms (Human recombinant GST-PI3K). Kind of assay: PI3K scintillation proximity assay, best IC50 obtained with the four isoforms (alpha, beta, delta, gamma). It is filed as biochemical. To be noted: best IC50 obtained with the four isoforms of PI3K; read-out: Best potency measured on the 4 PI3K isoforms.
For `O=C(c1nn(-c2ccccc2)c2c1CS(=O)(=O)c1ccccc1-2)N1CCCOCC1` [Example 334, 3-(1,4-Oxazepan-4-ylcarbonyl)-1-phenyl-1,4-dihydrothiochromeno[4,3-c]pyrazole 5,5-dioxide], the pIC50 was 5.04. For the compound `O=C(c1nn([C@H]2CCCN(Cc3ccncc3)C2)c2c1CS(=O)(=O)c1ccccc1-2)N1CCOCC1` (stereo in doubt) [Example 473, 3-(morpholin-4-ylcarbonyl)-1-[1-(pyridin-4-ylmethyl)piperidin-3-yl]-1,4-dihydrothiochromeno[4,3-c]pyrazole 5,5-dioxide], the pIC50 was 7.35.

With `O=C(c1nn(-c2ccc(Cl)cc2)c2c1CS(=O)(=O)c1ccccc1-2)N1CCOCC1` [Example 29, 1-(4-chlorophenyl)-3-(morpholin-4-ylcarbonyl)-1,4-dihydrothiochromeno[4,3-c]pyrazole 5,5-dioxide], the pIC50 was 6.05. Still for that read-out and setting: next, `COC1CN(Cc2ccc(-n3nc(C(=O)N4CCOCC4)c4c3-c3ccccc3S(=O)(=O)C4)cc2)C1` [Example 272, 1-{4-[(3-Methoxyazetidin-1-yl)methyl]phenyl}-3-(morpholin-4-ylcarbonyl)-1,4-dihydrothiochromeno[4,3-c]pyrazole 5,5-dioxide]: 6.78. As to `O=C(c1nn(-c2ccccc2)c2c1CS(=O)(=O)c1ncccc1-2)N1CCOCC1` [Example 132, 3-(Morpholin-4-ylcarbonyl)-1-phenyl-1,4-dihydropyrazolo[3′,4′:4,5]thiopyrano[2,3-b]pyridine 5,5-dioxide], the pIC50 was 6.28. Still for that read-out and setting: for `CC(C)(C)OC(=O)N1CCC(n2nc(C(=O)N3CCOCC3)c3c2-c2ccccc2S(=O)(=O)C3)CC1` [Example 119, tert-Butyl 4-[3-(morpholin-4-ylcarbonyl)-5,5-dioxidothiochromeno[4,3-c]pyrazol-1(4H)-yl]piperidine-1-carboxylate] the value was 6.09; for `COCCNC(=O)c1cccc(-n2nc(C(=O)N3CCOCC3)c3c2-c2ccccc2S(=O)(=O)C3)c1` [Example 126, N-(2-Methoxyethyl)-3-[3-(morpholin-4-ylcarbonyl)-5,5-dioxidothiochromeno[4,3-c]pyrazol-1 (4H)-yl]benzamide], 5.95; for `COc1ccc2c(c1)S(=O)(=O)Cc1c(C(=O)N3CCOCC3)nn([C@H]3CCCN(CCC4CCOCC4)C3)c1-2` (single isomer, unassigned) [Example 369], 7.57. Same read-out and setting: next, `O=C(c1nn([C@@H]2CCCN(C3CCCOC3)C2)c2c1CS(=O)(=O)c1ncccc1-2)N1CCOCC1` (single isomer, unassigned) [Example 379, 3-(morpholin-4-ylcarbonyl)-1-[1-(tetrahydro-2H-pyran-3-yl)piperidin-3-yl]-1,4-dihydropyrazolo[3′,4′:4,5]thiopyrano[2,3-b]pyridine 5,5-dioxide]: 5.53. Still for that read-out and setting: next, `O=C(c1nn(-c2cccc(CN3CCC(F)(F)CC3)c2)c2c1CS(=O)(=O)c1ccccc1-2)N1CCOCC1` [Example 260, 1-{3-[(4,4-Difluoropiperidin-1-yl)methyl]phenyl}-3-(morpholin-4-ylcarbonyl)-1,4-dihydrothiochromeno[4,3-c]pyrazole 5,5-dioxide]: 6.25. On to `COCCN(C)CCN1CCC[C@H](n2nc(C(=O)N3CCOCC3)c3c2-c2ccccc2S(=O)(=O)C3)C1` (stereo in doubt) [Example 438, 2-methoxy-N-methyl-N-(2-{3-[3-(morpholin-4-ylcarbonyl)-5,5-dioxidothiochromeno[4,3-c]pyrazol-1(4H)-yl]piperidin-1-yl}ethyl)ethanamine], for which the pIC50 was 7.35.

Turning to `O=C(c1nn(-c2ccccc2)c2c1CS(=O)(=O)c1ccc(F)cc1-2)N1CCOCC1` [Example 17, 8-fluoro-3-(morpholin-4-ylcarbonyl)-1-phenyl-1,4-dihydrothiochromeno[4,3-c]pyrazole 5,5-dioxide], the pIC50 is 6.01.

Turning to `O=C(c1nn(C2CCCN(CCC3CCOCC3)C2)c2c1CS(=O)(=O)c1ccccc1-2)N1CCOCC1` (centres unmarked) [Example 224, 3-(Morpholin-4-ylcarbonyl)-1-{1-[2-(tetrahydro-2H-pyran-4-yl)ethyl]piperidin-3-yl)-1,4-dihydrothiochromeno[4,3-c]pyrazole 5,5-dioxide], the pIC50 is 7.27. Still for that read-out and setting: next, `O=C(c1nn(-c2ccc(CN3CCC(F)(F)CC3)cc2)c2c1CS(=O)(=O)c1ccccc1-2)N1CCOCC1` [Example 268, 1-{4-[(4,4-Difluoropiperidin-1-yl)methyl]phenyl}-3-(morpholin-4-ylcarbonyl)-1,4-dihydrothiochromeno[4,3-c]pyrazole 5,5-dioxide]: 6.64. Same read-out and setting: for `O=C(c1nn(-c2cccc(CN3CCC(F)CC3)c2)c2c1CS(=O)(=O)c1ccccc1-2)N1CCOCC1` [Example 242, 1-{3-[(4-Fluoropiperidin-1-yl)methyl]phenyl}-3-(morpholin-4-ylcarbonyl)-1,4-dihydrothiochromeno[4,3-c]pyrazole 5,5-dioxide] the value was 6.36.

For the compound `Cc1nc(-c2cccc(-n3nc(C(=O)N4CCOCC4)c4c3-c3ccccc3S(=O)(=O)C4)c2)n[nH]1` [Example 200, 1-[3-(5-Methyl-1H-1,2,4-triazol-3-yl)phenyl]-3-(morpholin-4-ylcarbonyl)-1,4-dihydrothiochromeno[4,3-c]pyrazole 5,5-dioxide], the pIC50 is 5.31. The same measure, in the same setting: next, `CC1COCCN1Cc1ccc(-n2nc(C(=O)N3CCOCC3)c3c2-c2ccccc2S(=O)(=O)C3)cc1` (centres unmarked) [Example 357, 1-{4-[(3-Methylmorpholin-4-yl)methyl]phenyl}-3-(morpholin-4-ylcarbonyl)-1,4-dihydrothiochromeno[4,3-c]pyrazole 5,5-dioxide]: 6.74; `O=C(c1nn([C@H]2CCCN(CCF)C2)c2c1CS(=O)(=O)c1ccccc1-2)N1CCOCC1` (single isomer, unassigned) [Example 372, 1-[1-(2-fluoroethyl)piperidin-3-yl]-3-(morpholin-4-ylcarbonyl)-1,4-dihydrothiochromeno[4,3-c]pyrazole 5,5-dioxide]: 6.70; `O=C(c1nn([C@H]2CCCNC2)c2c1CS(=O)(=O)c1ccccc1-2)N1CCOCC1` (single isomer, unassigned) [Example 359]: 5.97.

With `O=C(c1nn(Cc2ccccc2)c2c1CS(=O)(=O)c1ccccc1-2)N1CCOCC1` [Example 40, 1-benzyl-3-(morpholin-4-ylcarbonyl)-1,4-dihydrothiochromeno[4,3-c]pyrazole 5,5-dioxide], the pIC50 is 5.92.

Take `O=C(c1nn([C@@H]2CCCNC2)c2c1CS(=O)(=O)c1ccccc1-2)N1CCOCC1` (single isomer, unassigned) [Example 358]: the pIC50 was 5.52. The same measure, in the same setting: for `O=C(c1nn([C@H]2CCCN(C3CCCOC3)C2)c2c1CS(=O)(=O)c1c(F)cccc1-2)N1CCOCC1` (stereo in doubt) [Example 425, 6-Fluoro-3-(morpholin-4-ylcarbonyl)-1-[1-(tetrahydro-2H-pyran-3-yl)piperidin-3-yl]-1,4-dihydrothiochromeno[4,3-c]pyrazole 5,5-dioxide] the value was 7.60; for `O=C(c1nn(-c2ccccc2)c2c1CS(=O)(=O)c1ccc(CN3CCOCC3)cc1-2)N1CCOCC1` [Example 162, 3-(Morpholin-4-ylcarbonyl)-8-(morpholin-4-ylmethyl)-1-phenyl-1,4-dihydrothiochromeno[4,3-c]pyrazole 5,5-dioxide], 5.79; for `CC(=O)Nc1nc2c(s1)S(=O)(=O)Cc1c(C(=O)N3CCOCC3)nn(C3CCOCC3)c1-2` [Example 289, N-[3-(Morpholin-4-ylcarbonyl)-5,5-dioxido-1-(tetrahydro-2H-pyran-4-yl)-1,4-dihydropyrazolo[3′,4′:4,5]thiopyrano[3,2-d][1,3]thiazol-7-yl]acetamide], 6.55. Same read-out and setting: next, `O=C(c1nn(-c2ccc(C3(CN4CCOCC4)CC3)cc2)c2c1CS(=O)(=O)c1ccccc1-2)N1CCOCC1` [Example 462, 3-(Morpholin-4-ylcarbonyl)-1-{4-[1-(morpholin-4-ylmethyl)cyclopropyl]phenyl}-1,4-dihydrothiochromeno[4,3-c]pyrazole 5,5-dioxide]: 6.00; `O=C(c1nn(C2CCCCCC2)c2c1CS(=O)(=O)c1ccccc1-2)N1CCOCC1` [Example 78, 1-Cycloheptyl-3-(morpholin-4-ylcarbonyl)-1,4-dihydrothiochromeno[4,3-c]pyrazole 5,5-dioxide]: 6.33; `O=C(c1nn([C@H]2CCCN(CC3CCOCC3)C2)c2c1CS(=O)(=O)c1ccccc1-2)N1CCOCC1` (stereo in doubt) [Example 361, 3-(morpholin-4-ylcarbonyl)-1-[1-(tetrahydro-2H-pyran-4-ylmethyl)piperidin-3-yl]-1,4-dihydrothiochromeno[4,3-c]pyrazole 5,5-dioxide]: 7.60. As for `O=C(c1nn(Cc2nc3ccccc3s2)c2c1CS(=O)(=O)c1ccccc1-2)N1CCOCC1` [Example 239, 1-(1,3-Benzothiazol-2-ylmethyl)-3-(morpholin-4-ylcarbonyl)-1,4-dihydrothiochromeno[4,3-c]pyrazole 5,5-dioxide], the pIC50 was 5.83. Still for that read-out and setting: for `O=C(c1nn([C@H]2CCCN(CC3CCOCC3)C2)c2c1CS(=O)(=O)c1ncccc1-2)N1CCOCC1` (single isomer, unassigned) [Example 376, 3-(morpholin-4-ylcarbonyl)-1-[1-(tetrahydro-2H-pyran-4-ylmethyl)piperidin-3-yl]1,4-dihydropyrazolo[3′,4′:4,5]thiopyrano[2,3-b]pyridine 5,5-dioxide] the value was 7.89. Same read-out and setting: for `O=C(CC1CCOCC1)N1CCC(n2nc(C(=O)N3CCOCC3)c3c2-c2ccccc2S(=O)(=O)C3)C1` (centres unmarked) [Example 287, 3-(Morpholin-4-ylcarbonyl)-1-[1-(tetrahydro-2H-pyran-4-ylacetyl)pyrrolidin-3-yl]-1,4-dihydrothiochromeno[4,3-c]pyrazole 5,5-dioxide] the value was 6.13.

Still in this assay, the particulars now being: inhibition at 20 μM.
Regarding `CC1CN(C(=O)c2nn(-c3ccccc3)c3c2CS(=O)(=O)c2ccccc2-3)CC(C)O1` (centres unmarked) [Example 337], the “Best potency measured on the 4 PI3K isoforms, % inh @20 μM” value was determined as 11% inh @20 μM. Turning to `O=C(c1nn(-c2ccccc2)c2c1CS(=O)(=O)c1cc(CN3CCOCC3)ccc1-2)N1CCOCC1` [Example 329], the “Best potency measured on the 4 PI3K isoforms, % inh @20 μM” value came out at 23% inh @20 μM.
